According to patent US8410161B2, “Thioxanthone ring system derivatives” (National Defense Medical Center, priority 2010, dated 2013):

Legend:
HCC-2998 = assay: NCI in vitro DTP human cell line screen, HCC-2998; type: cell-based; settings: Colon Cancer, 1.00E−5 Molar
Method: (§1) Then, a cell toxicity assay of the cancer lines made by National Cancer Institute will be discussed as follows. The cell toxicity assay is performed by choosing ten compounds (existing certification numbers) from the 59 compounds disclosed in the present invention first.

KM12 = assay: NCI in vitro DTP human cell line screen, KM12; type: cell-based; settings: Colon Cancer, 1.00E−5 Molar
Method: as §1

RPMI-8226 = assay: NCI in vitro DTP human cell line screen, RPMI-8226; type: cell-based; settings: Leukemia, 1.00E−5 Molar
Method: as §1

IGROV1 = assay: NCI in vitro DTP human cell line screen, IGROV1; type: cell-based; settings: Ovarian Cancer, 1.00E−5 Molar
Method: as §1

NCI-H522 = assay: NCI in vitro DTP human cell line screen, NCI-H522; type: cell-based; settings: Non-Small Cell Lung Cancer, 1.00E−5 Molar
Method: as §1

SF-295 = assay: NCI in vitro DTP human cell line screen, SF-295; type: cell-based; settings: CNS Cancer, 1.00E−5 Molar
Method: as §1

[1] = MTT assay, HEL299 fibroblast; type: cell-based; settings: human
Source text: Please refer to FIG. 4C, various cell viabilities of the HEL299 cell lines can be obtained through the MTT assay while the compounds No. 1˜30 are used to treat HEL299 cell lines, wherein HEL299 cell lines are fibroblast.

NCI-H322M = assay: NCI in vitro DTP human cell line screen, NCI-H322M; type: cell-based; settings: Non-Small Cell Lung Cancer, 1.00E−5 Molar
Method: as §1

A3 cell lines = assay: MTT assay, A3 cell lines (lung cancer stem cell); type: cell-based
Source text: Please to FIG. 4B, various cell viabilities of the A3 cell lines can be obtained through the MTT assay and illustrated in FIG. 4B while the compounds No. 1˜30 are used to treat A3 cell lines, wherein A3 cell lines are lung cancer stem cell.

OVCAR-5 = assay: NCI in vitro DTP human cell line screen, OVCAR-5; type: cell-based; settings: Ovarian Cancer, 1.00E−5 Molar
Method: as §1

60 cancer lines = assay: NCI cell toxicity assay of 60 cancer lines, whole panel summary; type: cell-based, human; settings: mean over all cell lines; 1.00E−5 Molar
Method: as §1

786-0 = assay: NCI in vitro DTP human cell line screen, 786-0; type: cell-based; settings: Renal Cancer, 1.00E−5 Molar
Method: as §1

PC-3 = assay: NCI in vitro DTP human cell line screen, PC-3; type: cell-based; settings: Prostate Cancer, 1.00E−5 Molar
Method: as §1

BT-549 = assay: NCI in vitro DTP human cell line screen, BT-549; type: cell-based; settings: Breast Cancer, 1.00E−5 Molar
Method: as §1

SK-MEL-5 = assay: NCI in vitro DTP human cell line screen, SK-MEL-5; type: cell-based; settings: Melanoma, 1.00E−5 Molar
Method: as §1

MALME-3M = assay: NCI in vitro DTP human cell line screen, MALME-3M; type: cell-based; settings: Melanoma, 1.00E−5 Molar
Method: as §1

NCI/ADR-RES = assay: NCI in vitro DTP human cell line screen, NCI/ADR-RES; type: cell-based; settings: Ovarian Cancer, 1.00E−5 Molar
Method: as §1

HCT-116 = assay: NCI in vitro DTP human cell line screen, HCT-116; type: cell-based; settings: Colon Cancer, 1.00E−5 Molar
Method: as §1

OVCAR-3 = assay: NCI in vitro DTP human cell line screen, OVCAR-3; type: cell-based; settings: Ovarian Cancer, 1.00E−5 Molar
Method: as §1

COLO 205 = assay: NCI in vitro DTP human cell line screen, COLO 205; type: cell-based; settings: Colon Cancer, 1.00E−5 Molar
Method: as §1

TK-10 = assay: NCI in vitro DTP human cell line screen, TK-10; type: cell-based; settings: Renal Cancer, 1.00E−5 Molar
Method: as §1

OVCAR-4 = assay: NCI in vitro DTP human cell line screen, OVCAR-4; type: cell-based; settings: Ovarian Cancer, 1.00E−5 Molar
Method: as §1

SK-MEL-2 = assay: NCI in vitro DTP human cell line screen, SK-MEL-2; type: cell-based; settings: Melanoma, 1.00E−5 Molar
Method: as §1

MDA-MB-468 = assay: NCI in vitro DTP human cell line screen, MDA-MB-468; type: cell-based; settings: Breast Cancer, 1.00E−5 Molar
Method: as §1

MCF7 = assay: NCI in vitro DTP human cell line screen, MCF7; type: cell-based; settings: Breast Cancer, 1.00E−5 Molar
Method: as §1

LOX IMVI = assay: NCI in vitro DTP human cell line screen, LOX IMVI; type: cell-based; settings: Melanoma, 1.00E−5 Molar
Method: as §1

UO-31 = assay: NCI in vitro DTP human cell line screen, UO-31; type: cell-based; settings: Renal Cancer, 1.00E−5 Molar
Method: as §1

OVCAR-8 = assay: NCI in vitro DTP human cell line screen, OVCAR-8; type: cell-based; settings: Ovarian Cancer, 1.00E−5 Molar
Method: as §1

CAKI-1 = assay: NCI in vitro DTP human cell line screen, CAKI-1; type: cell-based; settings: Renal Cancer, 1.00E−5 Molar
Method: as §1

UACC-257 = assay: NCI in vitro DTP human cell line screen, UACC-257; type: cell-based; settings: Melanoma, 1.00E−5 Molar
Method: as §1

U251 = assay: NCI in vitro DTP human cell line screen, U251; type: cell-based; settings: CNS Cancer, 1.00E−5 Molar
Method: as §1

K562 = assay: NCI in vitro DTP human cell line screen, K562; type: cell-based; settings: Leukemia, 1.00E−5 Molar
Method: as §1

NCI-H460 = assay: NCI in vitro DTP human cell line screen, NCI-H460; type: cell-based; settings: Non-Small Cell Lung Cancer, 1.00E−5 Molar
Method: as §1

SK-MEL-28 = assay: NCI in vitro DTP human cell line screen, SK-MEL-28; type: cell-based; settings: Melanoma, 1.00E−5 Molar
Method: as §1

SW-620 = assay: NCI in vitro DTP human cell line screen, SW-620; type: cell-based; settings: Colon Cancer, 1.00E−5 Molar
Method: as §1

HCT-15 = assay: NCI in vitro DTP human cell line screen, HCT-15; type: cell-based; settings: Colon Cancer, 1.00E−5 Molar
Method: as §1

MOLT-4 = assay: NCI in vitro DTP human cell line screen, MOLT-4; type: cell-based; settings: Leukemia, 1.00E−5 Molar
Method: as §1

SNB-75 = assay: NCI in vitro DTP human cell line screen, SNB-75; type: cell-based; settings: CNS Cancer, 1.00E−5 Molar
Method: as §1

SK-OV-3 = assay: NCI in vitro DTP human cell line screen, SK-OV-3; type: cell-based; settings: Ovarian Cancer, 1.00E−5 Molar
Method: as §1

SF-539 = assay: NCI in vitro DTP human cell line screen, SF-539; type: cell-based; settings: CNS Cancer, 1.00E−5 Molar
Method: as §1

HT29 = assay: NCI in vitro DTP human cell line screen, HT29; type: cell-based; settings: Colon Cancer, 1.00E−5 Molar
Method: as §1

DU145 = assay: NCI in vitro DTP human cell line screen, DU145; type: cell-based; settings: Prostate Cancer, 1.00E−5 Molar
Method: as §1

HS 578-T = assay: NCI in vitro DTP human cell line screen, HS 578-T; type: cell-based; settings: Breast Cancer, 1.00E−5 Molar
Method: as §1

T-47D = assay: NCI in vitro DTP human cell line screen, T-47D; type: cell-based; settings: Breast Cancer, 1.00E−5 Molar
Method: as §1

HL-60(TB) = assay: NCI in vitro DTP human cell line screen, HL-60(TB); type: cell-based; settings: Leukemia, 1.00E−5 Molar
Method: as §1

SF-268 = assay: NCI in vitro DTP human cell line screen, SF-268; type: cell-based; settings: CNS Cancer, 1.00E−5 Molar
Method: as §1

NCI-H23 = assay: NCI in vitro DTP human cell line screen, NCI-H23; type: cell-based; settings: Non-Small Cell Lung Cancer, 1.00E−5 Molar
Method: as §1

A control cell lines = assay: MTT assay, A control cell lines (lung cancer cell); type: cell-based
Source text: Please refer to Table 1 and FIGS. 4A-4C. According to a MTT assay (Table 1), various cell viabilities of the A control cell lines can be obtained and illustrated in FIG. 4A while the compounds No. 2˜30 are used to treat A control cell lines, wherein A control cell lines are lung cancer cell.

SR = assay: NCI in vitro DTP human cell line screen, SR; type: cell-based; settings: Leukemia, 1.00E−5 Molar
Method: as §1

M14 = assay: NCI in vitro DTP human cell line screen, M14; type: cell-based; settings: Melanoma, 1.00E−5 Molar
Method: as §1

NCI-H226 = assay: NCI in vitro DTP human cell line screen, NCI-H226; type: cell-based; settings: Non-Small Cell Lung Cancer, 1.00E−5 Molar
Method: as §1

EKVX = assay: NCI in vitro DTP human cell line screen, EKVX; type: cell-based; settings: Non-Small Cell Lung Cancer, 1.00E−5 Molar
Method: as §1

RXF 393 = assay: NCI in vitro DTP human cell line screen, RXF 393; type: cell-based; settings: Renal Cancer, 1.00E−5 Molar
Method: as §1

MDA-MB-435 = assay: NCI in vitro DTP human cell line screen, MDA-MB-435; type: cell-based; settings: Melanoma, 1.00E−5 Molar
Method: as §1

ACHN = assay: NCI in vitro DTP human cell line screen, ACHN; type: cell-based; settings: Renal Cancer, 1.00E−5 Molar
Method: as §1

## COc1cccc(Sc2ccc3c(=O)c4ccccc4sc3c2Cl)c1 [No. 16, 4-Chloro-3-(3-methoxylphenylthio)-9H-thioxanthen-9-one]
HCC-2998
  Growth Percent: 103.45%
KM12
  Growth Percent: 114.13%
RPMI-8226
  Growth Percent: 99.57%
IGROV1
  Growth Percent: 108.37%
NCI-H522
  Growth Percent: 86.09%
SF-295
  Growth Percent: 108.18%
[1]
  viability: 90.6 ± 11.5%
NCI-H322M
  Growth Percent: 118.28%
A3 cell lines
  cell viabilities of A3 cell lines (MTT assay): 90.0 ± 1.24%
OVCAR-5
  Growth Percent: 94.14%
60 cancer lines
  Growth Percent, Mean: 101.65%
786-0
  Growth Percent: 107.97%
PC-3
  Growth Percent: 98.58%
BT-549
  Growth Percent: 112.48%
SK-MEL-5
  Growth Percent: 96.73%
MALME-3M
  Growth Percent: 94.91%
NCI/ADR-RES
  Growth Percent: 102.83%
HCT-116
  Growth Percent: 101.88%
OVCAR-3
  Growth Percent: 113.99%
COLO 205
  Growth Percent: 113.53%
TK-10
  Growth Percent: 95.23%
OVCAR-4
  Growth Percent: 99.88%
SK-MEL-2
  Growth Percent: 97.07%
MDA-MB-468
  Growth Percent: 104.49%
MCF7
  Growth Percent: 88.94%
LOX IMVI
  Growth Percent: 93.53%
UO-31
  Growth Percent: 98.31%
OVCAR-8
  Growth Percent: 94.29%
CAKI-1
  Growth Percent: 101.23%
UACC-257
  Growth Percent: 89.21%
U251
  Growth Percent: 93.76%
K562
  Growth Percent: 97.79%
NCI-H460
  Growth Percent: 108.81%
SK-MEL-28
  Growth Percent: 109.16%
SW-620
  Growth Percent: 106.14%
HCT-15
  Growth Percent: 94.87%
MOLT-4
  Growth Percent: 111.47%
SNB-75
  Growth Percent: 86.86%
SK-OV-3
  Growth Percent: 104.91%
SF-539
  Growth Percent: 100.06%
HT29
  Growth Percent: 91.02%
DU145
  Growth Percent: 115.18%
HS 578-T
  Growth Percent: 103.73%
T-47D
  Growth Percent: 92.09%
HL-60(TB)
  Growth Percent: 115.43%
SF-268
  Growth Percent: 104.10%
NCI-H23
  Growth Percent: 92.69%
A control cell lines
  cell viabilities of A control cell lines (MTT assay): 91.8 ± 3.07%
SR
  Growth Percent: 99.21%
M14
  Growth Percent: 111.90%
NCI-H226
  Growth Percent: 95.11%
EKVX
  Growth Percent: 96.56%
RXF 393
  Growth Percent: 112.67%
MDA-MB-435
  Growth Percent: 100.32%
ACHN
  Growth Percent: 103.08%
